Here are results for 4 compounds from patent publication US4382871A, “Detergent compositions” (Lever Brothers Company, priority 1980, dated 1983).

Data set [1] in a line: acute oral toxicity (LD50) in Webster mice. Format: in vivo. Particulars: mouse, in vivo, read-out: LD50 (dosage which is lethal for 50% of the mice). The text has this:
(§1) As stated above, a particular advantage of the builders of the present invention over the salts of unsubstituted oxydiacetic acid, is their lower toxicity. For example, using Webster mice, the acute oral toxicity data, (LD50), i.e., the dosage in grams per kilogram of body weight which is lethal for 50% of the mice, for two of the preferred embodiments compared to disodium oxydiacetate are as follows: […]

Another data set deals with Webster mice. Put plainly: acute oral toxicity (LD50) in Webster mice. Particulars: from LD50. Format: in vivo.
From the text: as §1

For data set [2] the following is noted: if accidentally swallowed; cited from earlier work.

For the compound `CC(OCC(=O)[O-])C(=O)[O-].[Na+].[Na+]` (stereo not shown), in data set [1], the LD50 is greater than 5000 mg/kg. In addition, the “Remarks (toxicity classification)” value in the data set on Webster mice is given as “non-toxic”.

Regarding `CC(OC(C)C(=O)[O-])C(=O)[O-].[Na+].[Na+]` (stereo not shown), the median lethal dose (LD50) in data set [1] is greater than 5000 mg/kg. For the same compound, the “Remarks (toxicity classification)” value in the data set with Webster mice was “non-toxic”.

Take `O=C([O-])COCC(=O)[O-].[Na+].[Na+]` [reference compound]: the 50% lethal dose (LD50) in data set [1] is 2850 mg/kg. Besides, in the data set with Webster mice, the “Remarks (toxicity classification)” value is given as “slightly toxic”.

In the case of trisodium polyphosphate, the emetic properties result in data set [2] was “emetic properties”.

One may read the LD50 as the dose at which mortality reaches 50%.
